According to patent publication US20160194358A1, “LINEAR PEPTIDE ANTIBIOTCS” (priority 2013, published 2016):
Values after ≈ are worked out from the molar mass of the structure shown. Like-named read-outs stand apart in the source and are kept apart here. *1 amine or outer side, *2 acyl side, *3 side chain or, on linkers, in order; H or OH if unused. Where a SMILES comes first, the peptide text is derived from it. [ ]: non-standard residue; d: D form. The star is where a group is joined. ξ: configuration not given here. boroAla((+)-pinanediol) = C[C@H](N*)B1O[C@@H]2C[C@@H]3C[C@@H](C3(C)C)[C@]2(C)O1; Biphenylcarbonyl(4'-Bu) = CCCCc1ccc(-c2ccc(C(=O)*)cc2)cc1; X5 = C[C@H](N*)B1OC2C[C@@H]3C[C@@H](C3(C)C)[C@]2(C)O1; Benzoyl(4-(4-Cl-Ph)) = O=C(c1ccc(-c2ccc(Cl)cc2)cc1)*; ξ3Amino2oxobutanoyl = CC(N[*:1])C(=O)C(=O)[*:2]; X1 = C[C@H](N[*:1])C(=O)C(=O)[*:2]; aThr = C[C@H](O)[C@H](N)C(=O)O; Thr(3ξ) = CC(O)[C@H](N)C(=O)O; NHPhenethyl = c1ccc(CCN*)cc1; X2 = C[C@H](N*)C(=O)c1ncco1; Decanoyl = CCCCCCCCCC(=O)*; X6 = NCCCCCCCCCCCCCCC(=O)*; boroAla = C[C@H](N*)B(O)O; X8 = NCCCCCCCCCCCCC(=O)*; Dab = NCC[C@H](N)C(=O)O; Dap = NC[C@H](N)C(=O)O; NHtBu = CC(C)(C)N*; βAla = NCCC(=O)O; NHBu = CCCCN*; X13 = COCCCN*; CH2Cl = ClC*

Assays:
S. aureus SPase = S. aureus SPase (Staphylococcus aureus, UniProt P0A070); assay: biochemical; details: IC 50 (nM) S. aureus, 20 μM substrate, 10 minutes preincubation
Procedure: Full length His-tagged S. aureus SPase protein was expressed similarly from E. coli BL21(DE3) containing the plasmid pCDF1-SaSpsB and purified similarly to the E. coli protein with the following exceptions. SPase protein was solubilized using 300 mM NaCl, 20 mM Tris pH 8.06, 5 mM Imidazole, 10% glycerol, 1% Triton X-100, prior to purification in Ni-NTA Superflow resin and resin bound protein was washed in a similar buffer containing 1% Elugent in place of Triton X-100 prior to protein eluted in wash buffer supplemented with 300 mM imidazole. […] All protein concentrations were determined by BCA assay.
(§1) Signal peptidase enzyme activity of the above proteins was measured using two fluorogenic peptide substrates (decanoyl-LSSPAYNO2A ? ADKabzPD and decanoyl-LTPTAYNO2A ? ASKKabzDD), where abz is the fluorescence donor 2-aminobenzamide, YNO2 is the fluorescence acceptor 3-nitrotyrosine, and the cleavage site is indicated with an arrow. Enzyme mix solution was prepared by diluting 2.5 nM of Escherichia coli or Staphylococcus aureus SPase protein into reaction buffers consisting of 20 mM PO4 pH 7.4, 100 mM NaCl, and 1% Elugent™ or octyl phenoxypolyethoxylethanol detergent at a concentration of 0.25% or 0.0625%. Reactions were initiated by the addition of substrate to a final concentration of 20 μM. Reaction progress was monitored by measuring the increase in fluorescence signal (excitation at 314 nm, emission at 416 nm) using a SpectraMax M2 fluorescence microplate reader. To determine IC50 values of test compounds, compound stock solutions were prepared in DMSO at a concentration of 1 mM. Three-folder serial dilutions of test compounds, starting at 10 μM, were prepared in enzyme mix solution and incubated at room temperature for 10 minutes. Following this incubation, fluorogenic substrate was added to a final concentration of 20 μM and the increase in fluorescence, corresponding to substrate cleavage, was monitored continuously at room temperature for 1 hour. Initial reaction rates were calculated based on the rate of increase in fluorescence during the reaction. Reaction rates were plotted as a function of compound concentration, and IC50 values are determined nonlinear regression analysis (SoftMaxPro 5.4, Molecular Devices™) of the sigmoidal dose-response curve.

E. coli SPase = biological target: T1, E. coli SPase (Escherichia coli, UniProt P00803); assay: Biochemical SPase activity assay, fluorogenic peptide substrate, E. coli enzyme; details: 20 μM substrate, 10 minutes preincubation, read-out: IC 50 (nM) E. coli
T1 construct: Full length His-tagged E. coli SPase proteins; His; made in house; host or cells: E. coli BL21(DE3)
Procedure: Full length His-tagged E. coli SPase proteins were expressed in E. coli BL21(DE3) containing the plasmid pET23-lepB. Briefly, saturated overnight cultures grown in 20 ml of Luria-Bertani medium supplemented with ampicillin were subcultures into 1.5 L of Luria-Bertani, and shaken at 37° C. until an optical density at 600 nm of 0.4-0.5 was achieved.
as §1

[1] = test system: Escherichia coli strain MC4100 IMP-4213, which harbors an LptD mutation; details: E. coli MC4100 IMP-4213, 35° C., 22 hours
How it was run: (§2)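 CLSI broth microdilution in cation-adjusted Mueller Hinton Broth with 0.002% Tween-80, two-fold dilutions starting at 64 μg/ml.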

[2] = test system: methicillin resistant Staphylococcus aureus (MRSA) strain USA300 (NRS384); details: MRSA USA300 (NRS384), 35° C., 22 hours
How it was run: as §2

T1 sequence (P00803 whole entry): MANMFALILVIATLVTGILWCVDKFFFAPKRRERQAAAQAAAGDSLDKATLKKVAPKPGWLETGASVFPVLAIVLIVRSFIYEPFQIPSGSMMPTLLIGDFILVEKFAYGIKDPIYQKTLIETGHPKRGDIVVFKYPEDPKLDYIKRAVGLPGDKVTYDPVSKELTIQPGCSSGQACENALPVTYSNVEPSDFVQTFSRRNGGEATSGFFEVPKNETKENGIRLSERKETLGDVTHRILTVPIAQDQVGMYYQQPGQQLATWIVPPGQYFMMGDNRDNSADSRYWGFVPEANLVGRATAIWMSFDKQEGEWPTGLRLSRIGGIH
S. aureus SPase, sequence (P0A070 whole entry): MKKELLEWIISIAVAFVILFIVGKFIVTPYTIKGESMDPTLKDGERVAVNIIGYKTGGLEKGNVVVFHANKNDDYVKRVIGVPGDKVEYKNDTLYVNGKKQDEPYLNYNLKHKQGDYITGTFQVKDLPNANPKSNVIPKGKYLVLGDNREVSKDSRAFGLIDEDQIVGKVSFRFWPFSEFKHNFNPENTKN

CCCCc1ccc(-c2ccc(C(=O)N[C@@H](CCN)C(=O)N[C@H](C(=O)N[C@@H](C)C(=O)N[C@@H](CCCCN)C(=O)N[C@@H](C)C(=O)C3CO3)[C@@H](C)O)cc2)cc1 (single isomer, unassigned) [Compound 201 P2]
IC50 (S. aureus SPase): 210 nM | IC50 (E. coli SPase): 150 nM | MIC (μg/mL) E. coli ([1]; listed as 201 P2): 5.7 µg/mL (≈ 7.58 µM) | MIC (μg/mL) S. aureus ([2]; listed as 201 P2): 2 µg/mL (≈ 2.66 µM)

CCCCc1ccc(-c2ccc(C(=O)N[C@@H](CCN)C(=O)N[C@H](C(=O)N[C@@H](C)C(=O)N[C@@H](CCCCN)C(=O)N[C@@H](C)C(=O)CCl)[C@@H](C)O)cc2)cc1 [Compound 211] ({Biphenylcarbonyl(4'-Bu)}-[Dab]TAKA-CH2Cl)
IC50 (S. aureus SPase): 390 nM | IC50 (E. coli SPase): 380 nM | MIC (μg/mL) E. coli [1]: 16 µg/mL (≈ 21.1 µM) | MIC (μg/mL) S. aureus [2]: 4 µg/mL (≈ 5.27 µM)

CCCCCCCCCC(=O)N[C@@H](CCCCN)C(=O)N[C@H](C(=O)N[C@@H](C)C(=O)N[C@@H](CC(N)=O)C(=O)NC(C)C(=O)C(=O)NC)C(C)O (stereo partly shown) [Compound 107] (Decanoyl-K[Thr(3ξ)]AN[ξ3Amino2oxobutanoyl]-NHMe)
IC50 (S. aureus SPase): 360 nM | IC50 (E. coli SPase): 3200 nM | MIC (μg/mL) E. coli [1]: >64 µg/mL | MIC (μg/mL) S. aureus [2]: >64 µg/mL

C[C@H](NC(=O)[C@H](CCCCN)NC(=O)[C@H](C)NC(=O)[C@@H](NC(=O)[C@H](CCN)NC(=O)CCCCCCCCCCCCCCN)[C@@H](C)O)B1O[C@@H]2C[C@@H]3C[C@@H](C3(C)C)[C@]2(C)O1 [Compound 116] (X6-[Dab]TAK-{boroAla((+)-pinanediol)})
IC50 (S. aureus SPase): 480 nM | IC50 (E. coli SPase): 200 nM | MIC (μg/mL) E. coli [1]: 32 µg/mL (≈ 37.1 µM) | MIC (μg/mL) S. aureus [2]: 1.4 µg/mL (≈ 1.62 µM)

CCCCCCCCCC(=O)NCCC(=O)N[C@@H](CCCCN)C(=O)N[C@H](C(=O)N[C@@H](C)C(=O)N[C@@H](CC(N)=O)C(=O)NC(C)C(=O)C(=O)NC)C(C)O (stereo partly shown) [Compound 106] ({Decanoyl-βAla}-K[Thr(3ξ)]AN[ξ3Amino2oxobutanoyl]-NHMe)
IC50 (S. aureus SPase): 45 nM | IC50 (E. coli SPase): 6200 nM | MIC (μg/mL) E. coli [1]: >64 µg/mL | MIC (μg/mL) S. aureus [2]: >64 µg/mL

COCCCNC(=O)C(=O)[C@H](C)NC(=O)[C@H](CCCCN)NC(=O)[C@H](C)NC(=O)[C@@H](NC(=O)[C@H](CN)NC(=O)c1ccc(-c2ccc(Cl)cc2)cc1)[C@@H](C)O [Compound 101] ({Benzoyl(4-(4-Cl-Ph))}-[Dap]TAK[X1]-X13)
IC50 (S. aureus SPase): 1600 nM | IC50 (E. coli SPase): 870 nM | MIC (μg/mL) E. coli [1]: >64 µg/mL | MIC (μg/mL) S. aureus [2]: >64 µg/mL

C[C@H](NC(=O)[C@H](CCCCN)NC(=O)[C@H](C)NC(=O)[C@@H](NC(=O)[C@H](CCN)NC(=O)c1ccc(-c2ccc(Cl)cc2)cc1)[C@@H](C)O)B(O)O [Compound 119] ({Benzoyl(4-(4-Cl-Ph))}-[Dab]TAK-boroAla)
IC50 (S. aureus SPase): 120 nM | IC50 (E. coli SPase): 10 nM | MIC (μg/mL) E. coli [1]: 2 µg/mL (≈ 2.84 µM) | MIC (μg/mL) S. aureus [2]: 1 µg/mL (≈ 1.42 µM)

CCCCNC(=O)C(=O)[C@H](C)NC(=O)[C@H](CCCCN)NC(=O)[C@H](C)NC(=O)[C@@H](NC(=O)[C@H](CN)NC(=O)c1ccc(-c2ccc(Cl)cc2)cc1)[C@@H](C)O [Compound 105] ({Benzoyl(4-(4-Cl-Ph))}-[Dap]TAK[X1]-NHBu)
IC50 (S. aureus SPase): 1300 nM | IC50 (E. coli SPase): 900 nM | MIC (μg/mL) E. coli [1]: 64 µg/mL (≈ 82.8 µM) | MIC (μg/mL) S. aureus [2]: 51 µg/mL (≈ 65.9 µM)

CCCCc1ccc(-c2ccc(C(=O)N[C@@H](CCN)C(=O)N[C@H](C(=O)N[C@@H](C)C(=O)N[C@@H](CCCCN)C(=O)N[C@@H](C)C(=O)C3OC3C)[C@@H](C)O)cc2)cc1 (single isomer, unassigned) [Compound 205 P2]
IC50 (S. aureus SPase): > 10000 nM | IC50 (E. coli SPase): > 10000 nM | MIC (μg/mL) E. coli ([1]; listed as 205 P2): 32 µg/mL (≈ 41.8 µM) | MIC (μg/mL) S. aureus ([2]; listed as 205 P2): >64 µg/mL

CCCCc1ccc(-c2ccc(C(=O)N[C@@H](CCN)C(=O)N[C@H](C(=O)N[C@@H](C)C(=O)N[C@@H](CCCCN)C(=O)N[C@@H](C)C(=O)C3CO3)[C@@H](C)O)cc2)cc1 (single isomer, unassigned) [Compound 201 P1]
IC50 (S. aureus SPase): 10 nM | IC50 (E. coli SPase): 7 nM | MIC (μg/mL) E. coli ([1]; listed as 201 P1): 1 µg/mL (≈ 1.33 µM) | MIC (μg/mL) S. aureus ([2]; listed as 201 P1): 0.09 µg/mL (≈ 0.12 µM)

CCCCc1ccc(-c2ccc(C(=O)N[C@@H](CCN)C(=O)N[C@H](C(=O)N[C@@H](C)C(=O)N[C@@H](CCCCN)C(=O)N[C@@H](C)B3O[C@@H]4C[C@@H]5C[C@@H](C5(C)C)[C@]4(C)O3)[C@H](C)O)cc2)cc1 [Compound 125] ({Biphenylcarbonyl(4'-Bu)}-[Dab][aThr]AK-{boroAla((+)-pinanediol)})
IC50 (S. aureus SPase): 280 nM | IC50 (E. coli SPase): 10 nM | MIC (μg/mL) E. coli [1]: 0.4 µg/mL (≈ 0.465 µM) | MIC (μg/mL) S. aureus [2]: 0.4 µg/mL (≈ 0.465 µM)

CCCCc1ccc(-c2ccc(C(=O)N[C@@H](CCN)C(=O)N[C@@H](CCC(N)=O)C(=O)N[C@@H](C)C(=O)N[C@@H](CCCCN)C(=O)N[C@@H](C)B3OC4C[C@@H]5C[C@@H](C5(C)C)[C@]4(C)O3)cc2)cc1 (stereo partly shown) [Compound 122] ({Biphenylcarbonyl(4'-Bu)}-[Dab]QAK-X5)
IC50 (S. aureus SPase): 240 nM | IC50 (E. coli SPase): 20 nM | MIC (μg/mL) E. coli [1]: 0.2 µg/mL (≈ 0.225 µM) | MIC (μg/mL) S. aureus [2]: 0.4 µg/mL (≈ 0.451 µM)

C[C@H](NC(=O)[C@@H](NC(=O)[C@H](CN)NC(=O)c1ccc(-c2ccc(Cl)cc2)cc1)[C@@H](C)O)C(=O)N[C@@H](CCCCN)C(=O)N[C@@H](C)C(=O)C(=O)NCCc1ccccc1 [Compound 110] ({Benzoyl(4-(4-Cl-Ph))}-[Dap]TAK[X1]-NHPhenethyl)
IC50 (S. aureus SPase): 3800 nM | IC50 (E. coli SPase): 6000 nM | MIC (μg/mL) E. coli [1]: 64 µg/mL (≈ 77.9 µM) | MIC (μg/mL) S. aureus [2]: 32 µg/mL (≈ 39 µM)

C[C@H](NC(=O)[C@H](CCCCN)NC(=O)[C@H](C)NC(=O)[C@@H](NC(=O)[C@H](CCN)NC(=O)CCCCCCCCCCCCN)[C@@H](C)O)B1O[C@@H]2C[C@@H]3C[C@@H](C3(C)C)[C@]2(C)O1 [Compound 115] (X8-[Dab]TAK-{boroAla((+)-pinanediol)})
IC50 (S. aureus SPase): 590 nM | IC50 (E. coli SPase): 330 nM | MIC (μg/mL) E. coli [1]: >64 µg/mL | MIC (μg/mL) S. aureus [2]: 11 µg/mL (≈ 13.2 µM)

C[C@H](NC(=O)[C@@H](NC(=O)[C@H](CN)NC(=O)c1ccc(-c2ccc(Cl)cc2)cc1)[C@@H](C)O)C(=O)N[C@@H](CCCCN)C(=O)N[C@@H](C)C(=O)C(=O)NC(C)(C)C [Compound 108] ({Benzoyl(4-(4-Cl-Ph))}-[Dap]TAK[X1]-NHtBu)
IC50 (S. aureus SPase): 3700 nM | IC50 (E. coli SPase): 930 nM | MIC (μg/mL) E. coli [1]: >64 µg/mL | MIC (μg/mL) S. aureus [2]: >64 µg/mL

C[C@H](NC(=O)[C@@H](NC(=O)[C@H](CN)NC(=O)c1ccc(-c2ccc(Cl)cc2)cc1)[C@@H](C)O)C(=O)N[C@@H](CCCCN)C(=O)N[C@@H](C)C(=O)c1ncco1 [Compound 212] ({Benzoyl(4-(4-Cl-Ph))}-[Dap]TAK-X2)
IC50 (S. aureus SPase): 2600 nM | IC50 (E. coli SPase): 34 nM | MIC (μg/mL) E. coli [1]: 64 µg/mL (≈ 86.3 µM) | MIC (μg/mL) S. aureus [2]: 45 µg/mL (≈ 60.7 µM)
